# Assay results: BindingDB's records for doi:10.1016/j.ejmech.2018.10.063 (Saint Petersburg State University, 2019)
# Assay: Inhibition of Influenza A virus (A/Puerto Rico/8/34(H1N1)) PA endonuclease infected in MDCK cells assessed as reduction in virus titer treated with cells for 1 hr prior to viral infection for 1 hr followed by compound washout and subsequent compound addition measured after 48 hrs by hemagglutination test
row,SMILES,IC50
1,c1cncc(N2CCN=C2c2ccc(C3=NCCN3c3cccnc3)cc2)c1,68 µM
2,c1ccc(N2CCN=C2c2ccc(C3=NCCN3)cc2)cc1,30 µM
3,Clc1ccc(N2CCN=C2c2ccc(C3=NCCN3c3ccc(Cl)cc3)cc2)cc1,5 µM
4,COc1ccc(N2CCN=C2c2ccc(C3=NCCN3c3ccc(OC)cc3)cc2)cc1,16 µM
5,Fc1ccc(N2CCN=C2c2ccc(C3=NCCN3c3ccc(F)cc3)cc2)cc1,12 µM
6,FC(F)(F)c1ccc(N2CCN=C2c2ccc(C3=NCCN3c3ccc(C(F)(F)F)cn3)cc2)nc1,103 µM
7,C[C@@H](N)C12CC3CC(CC(C3)C1)C2 [(alpha-methyl-1-adamantyl)methylamine],11 µM
8,c1cnc(N2CCN=C2c2ccc(C3=NCCN3c3cnccn3)cc2)cn1,> 809 µM
9,c1ccc(N2CCN=C2c2ccc(C3=NCCN3c3ccccn3)cc2)nc1,35 µM
10,Fc1ccc(N2CCN=C2c2ccc(C3=NCCN3)cc2)cc1,65 µM
11,COc1ccc(N2CCN=C2c2ccc(C3=NCCN3)cc2)cc1,44 µM
12,c1ccc(N2CCN=C2c2ccc(C3=NCCN3c3ccccc3)cc2)cc1,77 µM
